According to publication PMC8003975 (Cancers, 2021):
Values after ≈ are worked out from the molar mass of the structure shown. Values joined by “and” are separate entries in the source; they are usually repeats but may differ in a detail not shown here. Equal entries are not always repeated. Where two headings read alike, the source gives them in different places.

What was measured:
Cal27 cells = assay: Cytotoxicity assay (Cell Counting Kit-8); assay type: cell-based; conditions: Homo sapiens, CAL-27, 48 h
From the text: (§1) Normal oral keratinocytes (NOK) (kindly gifted by Dr. Karl Mugner, Tuffs University, Boston, MA, USA) were maintained in Keratinocyte SFM medium supplemented with EGF and bovine pituitary extract (GIBCO, Life Technologies, Berkeley, MO, USA) and 1% penicillin/ streptomycin. HNC cell line Cal27 was purchased from the ATCC. JHU029 (JHU-29) and JHU022 (JHU-22) cell lines were procured from the Johns Hopkins University (Baltimore, MD, USA). The Cal27 and JHU022 cells were maintained in Dulbecco’s Modified Eagle Medium (DMEM), and JHU029 cells were in RPMI1640 (Sigma, St. Louis, MO, USA) media supplemented with 10% FBS and 1% penicillin/ streptomycin (Sigma-Aldrich, St. Louis, MO, USA) in a humidified CO2 incubator. The cell lines are routinely tested in our laboratory to rule out mycoplasma contamination using a commercial MycoAlert™ Mycoplasma Detection kit (Lonza, Morrisville, NC, USA). Cal27 cells are tongue origin and JHU022 and JHU029 cells are from laryngx origin.
(§2) Cal27, JHU029, JHU022 and NOK were seeded in 96 well-plate (5000 cells/well) and cells were treated with different concentration of M-I for 48 h. There were untreated control and DMSO treated vehicle control group for comparison. Cytotoxicity assay was performed using Cell Counting Kit-8 (Dojindo Molecular Technology, Rockville, MD, USA) according to manufacturer instruction.

JHU022 cells = assay: Cytotoxicity assay (Cell Counting Kit-8); assay type: cell-based; conditions: Homo sapiens, 48 h
From the text: as §1, §2

JHU029 cells = assay: Cytotoxicity assay (Cell Counting Kit-8); assay type: cell-based; conditions: Homo sapiens, 48 h
From the text: as §1, §2

[1] = tested on: human normal oral keratinocytes (NOK); assay: Cytotoxicity assay (Cell Counting Kit-8); assay type: cell-based; conditions: 48 h
From the text: as §1, §2

[2] = Pharmacokinetic study, single dose IP or oral gavage; assay type: in vivo, C57Bl/6 male mice; conditions: for AUC(0-t) / Tmax / AUC(0-inf) / Cmax / half-life: male, C57Bl/6, mouse; for AUC(0-inf): read-out: AUCINF_obs (converted); for Cmax / half-life: 20 mg/kg; for half-life: read-out: T½ (elimination half-life) (converted)
Experimental: To evaluate the pharmacokinetic (PK) profile of M-I, a single dose (20 mg/kg) was given to C57Bl/6 male mice by either intraperitoneal injection (IP group; n = 3) or oral ga-vage (oral group; n = 3). A dose of 20 mg/kg was chosen based on previous publications. The average plasma concentration ± standard deviation at each time point is shown in Figure 5A and corresponding PK parameters are summarized in Table 2. M-I was rapidly absorbed with a maximum plasma concentration 1 h post-IP and PO dose. […] The observed elimination half-life was 0.9 h in the IP group and 2 h in the PO group. The oral group had loose stool, starting four hours post-dose, which had not re-solved by 8 h but all mice appeared normal after twenty-four hours. […] We therefore selected IP administration of M-I for subsequence studies.
The pharmacokinetic (PK) study of M-I was performed in male C57Bl/6 mice. A sin-gle dose of M-I (formulated at 2 mg/mL dissolved in 5% DMSO/95% of a 30% w:v Captisol solution) was administered either by intraperitoneal injection (IP group, n = 3) or oral ga-vage (PO group, n = 3). After dosing, 20 µL blood samples were collected into heparin pre-coated tubes at 5 min, 15 min, 30 min, 1 h, 2 h, 4 h, 6 h, 8 h and 24 h. Samples were centrifuged, and the plasma collected. M-I concentration was determined using liq-uid chromatography-mass spectrometry/mass spectrometry (LC-MS/MS) as described earlier.

JHU029 xenograft = assay: Tumorigenicity assay, HNC xenograft model; assay type: in vivo, BALB/c athymic nude mice
Experimental: Figure 6 Therapeutic effect of momordicine-I in JHU029 xenograft model. JHU029 cells (1.5 × 10^6) cells were injected subcutaneously into the flank of nude mice. After the formation of a palpable tumor, mice were randomly divided into three groups (n = 5): Control (without any treatment), BME group (30% BME through drinking water) and M-I group (30 mg/kg IP, once in a day and every day). (A) Body weight was measured in control and treated mice. (B) Representative images of tumors in control and treatment groups. (C) Tumors were measured using a slide caliper and tumor volumes were calculated. Arrow indicates starting point BME/M-I treatment. (D) Control or treated tumor lysates were subjected to Western blot analysis for c-Met and c-Myc expression using specific antibodies and representative bands are shown. The blot was reprobed with an antibody to Actin for normalization. […] Small bar indicates standard error (*, p < 0.05; *** p < 0.001).
JHU029 or Cal27 cells (1.5 × 10^6) containing 40% Matrigel were injected subcutaneously into the flank of BALB/c athymic nude mice (7–8 weeks old). When the palpable tumor was developed (>60 mm^3), mice were divided into three groups randomly, 5 mice in each group. The control group was without any treatment. The BME group received 30% (v/v) BME through drinking water. M-I group received 30 mg/kg dose of M-I once in day, every day. Body weight was monitored, and tumor size was measured using a slide caliper and volume was calculated using the formula ½ L × W^2. After animal sacrifice tumors were dissected out and snap frozen in liquid nitrogen for further analysis. All the animal experiments were carried out in accordance NIH guidelines, following a protocol approved (1017) by the Institutional Animal Care and Use Committee (IACUC) of Saint Louis University.

[3] = literature-reported biology of the tentatively identified metabolite; no reference given; cited from earlier work
insulin secretion = conditions: cited from earlier work
[4] = JHU029 xenograft tumor lysates, Western blot, vs untreated control tumors

With `CC(C)=CC(O)CC(C)[C@H]1CC[C@@]2(C)[C@@H]3[C@@H](O)C=C4[C@@H](CC[C@H](O)C4(C)C)[C@]3(C=O)CC[C@]12C` (stereo partly drawn) [M-I, (3S, 7S, 8S, 9R, 10R, 13R, 14S, 17R) 3,7-dihydroxy-17-(4-hydroxy-6-methylhept-5-en-2-yl)-4,4,13,14-tetramethyl-2,3,7,8,10,11, 12,15,16,17-decahydro-1H-cyclopenta[a]phenanthrene-9-carbaldehyde] the IC50 (Cal27 cells) was 7 µg/mL (≈ 14.8 µM), the IC50 (JHU022 cells) was 17 µg/mL (≈ 36 µM) and the IC50 (JHU029 cells) was 6.5 µg/mL (≈ 13.8 µM). For the same molecule, the “cytotoxic effect on normal oral keratinocytes” value [1] was “minimum effect”, the “adverse events in PK study” value ([2]; 20 mg/kg IP) was “No adverse events” and the “AUC (%Extrap)” value ([2]; 20 mg/kg IP, plasma, mean ± SD) was 0.33 ± 0.08%. For the same molecule, the “AUC (%Extrap)” value ([2]; 20 mg/kg PO, plasma, mean ± SD) was 6.84 ± 1.5%, the “T½ (elimination half-life)” value ([2]; 20 mg/kg PO, plasma, mean ± SD) was 2.11 ± 0.3 h and the “adverse events in PK study” value ([2]; 20 mg/kg oral gavage, starting four hours post-dose, normal after twenty-four hours) was “loose stool”. For the same molecule, the AUC(0-t) ([2]; 20 mg/kg IP, plasma, mean ± SD) was 12700 ng·h/mL, the Tmax ([2]; 20 mg/kg IP, plasma, mean ± SD) was 1 h and the AUC(0-inf) ([2]; 20 mg/kg IP, plasma, mean ± SD) was 12800 ng·h/mL. It also gave an AUC(0-t) ([2]; 20 mg/kg PO, plasma, mean ± SD) of 643 ng·h/mL, a Tmax ([2]; 20 mg/kg PO, plasma, mean ± SD) of 1 ± 0.9 h and an AUC(0-inf) ([2]; 20 mg/kg PO, plasma, mean ± SD) of 688 ng·h/mL. For the same molecule, the Cmax ([2]; plasma, ip, 20 mg/kg IP, mean ± SD) was 18 µM and 8430 ng/mL, the half-life ([2]; plasma, ip, 20 mg/kg IP, plasma, mean ± SD) was 0.9 ± 0.02 h and the Cmax ([2]; plasma, po, 20 mg/kg PO, mean ± SD) was 500 nM and 214 ng/mL. The half-life ([2]; plasma, po, 20 mg/kg PO, plasma, mean ± SD) was 2 h, the “c-Met expression in tumors” value (JHU029 xenograft; [4]) was “significant reduction” and the “c-Myc expression in tumors” value (JHU029 xenograft; [4]) was “significant reduction”. For the same molecule, the “tumor growth reduction, M-I compared with BME” value (JHU029 xenograft; JHU029 xenograft, nude mice, M-I 30 mg/kg IP once a day) was “better effect”, the tumor volume (JHU029 xenograft; JHU029 xenograft, nude mice, M-I 30 mg/kg IP once a day or 30% BME in drinking water, to day 32, vs untreated control) was “significantly reduced” and the “sudden drop in body weight” value (JHU029 xenograft; JHU029 xenograft, three out of five mice on Day 20, weight gained back, M-I 30 mg/kg IP once a day) was ~ 10%. For the same molecule, the “Reported Biology” value [3] was “• stimulate insulin secretion in vitro • diabetes-associated cardiac fibrosis” and the “insulin secretion in vitro” value (insulin secretion) was “stimulate insulin secretion”.
